# In US20230285402A1, “Compositions and Methods of Modulating Short-Chain Dehydrogenase Activity” (BOARD OF REGENTS OF THE UNIVERSITY OF TEXAS SYSTEM, priority 2013, published 2023):
# Assays:
# [1] = tested on: 15-PGDH-luciferase fusion reporter in V9m, LS174T and V503 cells; test: 15-PGDH-luciferase fusion reporter induction in colon cancer cell lines; type: cell-based; settings: V9m, LS174T, V503
# [2] = 21 day toxicity study in FVB mice, daily weights; type: in vivo, mouse; settings: 5 mg/kg IP twice daily for 21 days
# [3] = tested on: mice; test: Bone marrow transplant after 11Gy, SW033291 5 mg/kg IP twice daily: survival and blood/marrow counts; type: in vivo, mouse
# [4] = tested on: SCF; test: Gene expression in bone marrow cells of treated mice: SCF; type: in vivo, mouse; settings: 10 mg/kg IP twice daily, 5 doses
# Protocol: 2 hours following the last dose bone marrow is harvested and sorted into SKL marked cells that are hematopoietic stem cell enriched and into CD45(−) cells that are bone marrow stroma cells. RNA was extracted and gene expression determined relative to levels in mice injected with vehicle control.
# [5] = tested on: cell numbers in a cell culture assay; test: Toxicity in cell culture assay (decrease of cell numbers); type: cell-based; settings: concentration needed to decrease cell numbers
# Protocol: Time to inhibition refers to the time needed to inhibit the generation of NADH by 15-PGDH from the moment with drug is added into the reaction mix. Delta Tm refers to the shift in melting temperature of recombinant 15-PGDH in the presence of drug (with cofactor NADH also present). Concentration of Full Cell Line Reporter Induction refers to the concentration of drug that needs to be added to reporter cell line to achieve maximal induction of the 15-PGDH-luciferase gene fusion reporter cassette, as measured by luciferase assays. Hepatocyte stability refers to the half-life of compound in the presence of hepatocytes in culture. Toxicity refers to the concentration of compound needed to decrease cell numbers in a cell culture assay.
# [6] = tested on: FVB mice; test: Liver regeneration after partial hepatectomy, FVB mice, SW033291 5 mg/kg IP bid; type: in vivo, mouse
# [7] = tested on: C57BL/6J female mice; test: Survival after acetaminophen (Tylenol) 600 mg/kg IP (LD50), C57BL/6J female mice, SW033291 5 mg/kg IP; type: in vivo, mouse; settings: for number of mice surviving: first dose immediately after Tylenol
# [8] = day 5 after transplant, 500,000 donor cells
structure (smiles),measurement,setting,value
"CCCC[S+]([O-])c1sc2nc(-c3cccs3)cc(-c3ccccc3)c2c1N (centres unmarked) [SW033291, 2-(butylsulfinyl)-4-phenyl-6-(thiophen-2-yl)thieno[2,3-b]pyridin-3-amine]","luciferase activity, in words",[1],increase luciferase activity
same,mouse weight,[2],no evidence for SW033291 reducing mouse weight
same,median survival vs control,"[3]; 100,000 donor cells",approximate doubling of median survival
same,survival at 30 days,"[3]; 200,000 donor cells","all mice receiving 200,000 donor cells plus SW033291 survived"
same,survival at 30 days,"[3]; 500,000 donor cells",all survived
same,total platelet count vs control,[3]; [8],significantly higher total platelet count
same,total white count vs control,[3]; [8],significantly higher total white count
same,platelet count,"[3]; day 8 after transplant, control 39,500","77,000"
same,total white counts vs control,[3]; day 12 after transplant,significantly greater total white counts
same,hemoglobin level,"[3]; day 12 after transplant, control 8.3",11.58
same,neutrophil count,"[3]; day 12 after transplant, control 125",332
same,lymphocyte count vs control,[3]; day 18 after transplant,significantly higher
same,platelet counts vs control,[3]; day 18 after transplant,significantly higher platelet counts
same,total white count vs control,[3]; day 18 after transplant,significantly higher total white count
same,neutrophil count,"[3]; day 18 after transplant, control 365",835
same,mean SKL marked bone marrow cells,"[3]; day 18 after transplant, control 967",4127
same,induction of SCF,[4]; CD45(−) bone marrow stromal cells,greater than 4 fold
same,induction in RNA expression of SCF,[4]; bone marrow SKL cells,3 fold
same,Toxicity,[5],>10 µM
same,increase in median S-phase (BrdU positive) cells,[6]; post-operative day 2,greater than 2 fold
same,greater liver weight than control,"[6]; post-operative day 7, dosing from 1 hour before surgery",approximately 25%
same,number of mice surviving,"[7]; 0 hrs, 1 dose/daily, cohort of 6",6
same,number of mice surviving,"[7]; 0 hrs, 2 dose/daily, cohort of 6",6
same,Survival (number of mice),"[7]; 0 hrs, bid from 3 hours prior to acetaminophen, 6 doses, cohort of 6",6
same,Survival (number of mice),"[7]; 0 hrs, bid from 48 hours prior to acetaminophen, 9 doses, cohort of 12",12
same,number of mice surviving,"[7]; 16 hr, 1 dose/daily, cohort of 6",6
same,number of mice surviving,"[7]; 16 hr, 2 dose/daily, cohort of 6",6
same,Survival (number of mice),"[7]; 16 hr, bid from 3 hours prior to acetaminophen, 6 doses, cohort of 6",6
same,Survival (number of mice),"[7]; 16 hr, bid from 48 hours prior to acetaminophen, 9 doses, cohort of 12",12
same,number of mice surviving,"[7]; 24 hrs, 1 dose/daily, cohort of 6",6
same,number of mice surviving,"[7]; 24 hrs, 2 dose/daily, cohort of 6",6
same,Survival (number of mice),"[7]; 24 hrs, bid from 3 hours prior to acetaminophen, 6 doses, cohort of 6",5
same,Survival (number of mice),"[7]; 24 hrs, bid from 48 hours prior to acetaminophen, 9 doses, cohort of 12",12
same,Survival (number of mice),"[7]; 40 hrs, bid from 48 hours prior to acetaminophen, 9 doses, cohort of 12",11
same,number of mice surviving,"[7]; 48 hrs, 2 dose/daily, cohort of 6",3
same,Survival (number of mice),"[7]; 48 hrs, bid from 3 hours prior to acetaminophen, 6 doses, cohort of 6",3
same,Survival (number of mice),"[7]; 48 hrs, bid from 48 hours prior to acetaminophen, 9 doses, cohort of 12",10
same,number of mice surviving,"[7]; 64 hrs, 2 dose/daily, cohort of 6",3
same,Survival (number of mice),"[7]; 64 hrs, bid from 3 hours prior to acetaminophen, 6 doses, cohort of 6",3
same,Survival (number of mice),"[7]; 64 hrs, bid from 48 hours prior to acetaminophen, 9 doses, cohort of 12",10
same,number of mice surviving,"[7]; 72 hrs, 2 dose/daily, cohort of 6",3
same,Survival (number of mice),"[7]; 72 hrs, bid from 3 hours prior to acetaminophen, 6 doses, cohort of 6",3
same,Survival (number of mice),"[7]; 72 hrs, bid from 48 hours prior to acetaminophen, 9 doses, cohort of 12",10
same,number of mice surviving,"[7]; 88 hr, 2 dose/daily, cohort of 6",3
same,Survival (number of mice),"[7]; 88 hr, bid from 3 hours prior to acetaminophen, 6 doses, cohort of 6",3
same,Survival (number of mice),"[7]; 88 hr, bid from 48 hours prior to acetaminophen, 9 doses, cohort of 12",10
same,number of mice surviving,"[7]; 96 hr, 2 dose/daily, cohort of 6",3
same,Survival (number of mice),"[7]; 96 hr, bid from 3 hours prior to acetaminophen, 6 doses, cohort of 6",3
same,Survival (number of mice),"[7]; 96 hr, bid from 48 hours prior to acetaminophen, 9 doses, cohort of 12",10
same,number of mice surviving,"[7]; 112 hr, 2 dose/daily, cohort of 6",3
same,Survival (number of mice),"[7]; 112 hr, bid from 3 hours prior to acetaminophen, 6 doses, cohort of 6",3
same,Survival (number of mice),"[7]; 112 hr, bid from 48 hours prior to acetaminophen, 9 doses, cohort of 12",10
same,number of mice surviving,"[7]; 120 hr, 2 dose/daily, cohort of 6",3
same,Survival (number of mice),"[7]; 120 hr, bid from 3 hours prior to acetaminophen, 6 doses, cohort of 6",3
same,Survival (number of mice),"[7]; 120 hr, bid from 48 hours prior to acetaminophen, 9 doses, cohort of 12",10
same,survival vs control mice,"[7]; dosing begun immediately following acetaminophen, once or twice daily, 0-120 hours",No difference
